Starred links: 1 amine or outer side, 2 acyl side, 3 side chain; linkers in the order of their positions; H or OH if unused. Groups on a side chain read outwards from the residue. No end group written: not given here. γGlu = O=C(O)[C@H](CCC(=O)[*:2])N[*:1]
Legend:
LLC 1 = test: lytic activity on cultured tumor cells, lung tumor LLC 1 (FIG. 4); assay type: cell-based; details: 1, 10, 50 or 100 μM peptide
Procedure: (§1) This experiment, utilized a melittin analog having A [ε-γ]-Glu-[α-γ]-Glu at each of lysines 21 and 23: NH2-[…][ε-γ]-Glu-[α-γ]-Glu)-Arg-Lys([ε-γ]-Glu-[α-γ]-Glu)-Arg-Gln-Gln-COOH. (SEQ ID NO: 19) Two prostate tumors (PNCap and DU0145), two ovarian tumors (HeLa and SK-OV-3), one lung tumor (LLC 1) and one melanoma (B 16) were tested. Cultured cells were treated with 1, 10, 50 or 100 μM peptide.

B 16 = test: lytic activity on cultured tumor cells, melanoma B 16 (FIG. 4); assay type: cell-based; details: 1, 10, 50 or 100 μM peptide
Procedure: as §1

SK-OV-3 = test: lytic activity on cultured tumor cells, ovarian tumor SK-OV-3 (FIG. 4); assay type: cell-based; details: 1, 10, 50 or 100 μM peptide
Procedure: as §1

DU0145 = test: lytic activity on cultured tumor cells, prostate tumor DU0145 (FIG. 4); assay type: cell-based; details: 1, 10, 50 or 100 μM peptide
Procedure: as §1

mice = test: toxicity of escalating doses in mice; assay type: in vivo; details: 50, 100, 150 and 200 mM
Procedure: To assess the toxicity of this analog, mice were treated with escalating doses of analog, either subcutaneously or intravenously.

[1] = system: prostate cells not expressing PSMA (PC3); test: toxicity to prostate cells not expressing PSMA (FIG. 5); assay type: cell-based; details: 25 and 50 mM concentrations
Description: (§2) The same analog was used to treat a PSMA-expressing prostate cells (LNCaP-FCG), ovarian cancer cells (HeLa) or prostate cells not expressing PSMA (PC3).

[2] = system: PSMA-expressing prostate cells (LNCaP-FCG); test: toxicity to PSMA-expressing prostate cells (FIG. 5); assay type: cell-based; details: 25 and 50 mM concentrations
Description: as §2

PNCap = test: lytic activity on cultured tumor cells, prostate tumor PNCap (FIG. 4); assay type: cell-based; details: 1, 10, 50 or 100 μM peptide
Procedure: as §1

HeLa = test: lytic activity on cultured tumor cells, HeLa (FIG. 4, FIG. 5); assay type: cell-based
Procedure: as §1, §2

nucleated cells = details: cited from earlier work
mouse L-cells [3] = test: cell lysis assay, mouse L-cells (FIG. 1); assay type: cell-based; details: 50 μM; after 24 hours
[4] = system: human prostate cancer cells (LNCaP); test: ATP depletion assay (ATP bioluminescence), LNCaP (FIG. 3); assay type: cell-based; details: 50 or 100 μM; after 1 hour
Description: (§3) In order to obtain a more quantitative result, the assay was repeated and decrease in ATP levels was used as a surrogate marker for live versus dead cells. ATP plays a central role in the energy status of the cell and the regulation of enzymatic activity. The intracellular ATP level is strictly regulated. The assay of ATP has been used as a rapid and convenient measure of viable cell numbers. ATP level can be enzymatically determined with firefly luciferase, which specifically catalyzes the hydrolysis of ATP. The amount of light generated by this enzymatic reaction is directly related to the amount of ATP in the original sample.
(§4) For this purpose, the ATP Bioluminescence Assay Kit CLS II from Boehringer-Mannheim (Cat. No. 1699695) was employed. Briefly, 10^6 cells in 200 μl of medium containing the peptide, as above, were incubated at 37° C. in a CO2 incubator for 60 min. The cells were then lysed with 10 μl of 10% Triton X-100. Each lysate was transferred into a tube containing 155 μl of distilled water and 25 μl of stock luciferase and chemiluminescence was measured in a luminometer as directed by the manufacturer. As can been seen from FIG. 3, ATP is dramatically depleted in the presence of either 50 or 100 μM peptide, as compared to the controls.

mouse L-cells [5] = test: ATP depletion assay (ATP bioluminescence), mouse L-cells (FIG. 3); assay type: cell-based; details: 50 or 100 μM; 1 hour
Description: as §3, §4

[6] = system: human prostate cancer cells (LNCaP); test: cell lysis assay, LNCaP prostate tumor cells (FIG. 1); assay type: cell-based; details: 50 μM; after 15 minutes
Procedure: For cell lysis assay, 10^6 LNCaP prostate tumor cells were cultured in 48-well plate in 200 μl culture medium containing different concentrations of the peptide. The culture medium for LNCaP cell was RPMI 1640 medium with 2 mM L-glutamine adjusted to contain 1.5 g/L sodium bicarbonate, 4.5 g/L glucose, 10 mM HEPES, 1.0 mM sodium pyruvate, 90%; fetal bovine serum 10%. […]

## CC[C@H](C)[C@H](NC(=O)CN)C(=O)NCC(=O)N[C@@H](C)C(=O)N[C@H](C(=O)N[C@@H](CC(C)C)C(=O)N[C@@H](CCCCN)C(=O)N[C@H](C(=O)N[C@@H](CC(C)C)C(=O)N[C@H](C(=O)N[C@H](C(=O)NCC(=O)N[C@@H](CC(C)C)C(=O)N1CCC[C@H]1C(=O)N[C@@H](C)C(=O)N[C@@H](CC(C)C)C(=O)N[C@H](C(=O)N[C@@H](CO)C(=O)N[C@@H](Cc1c[nH]c2ccccc12)C(=O)N[C@H](C(=O)N[C@@H](CCCCNC(=O)CC[C@H](NC(=O)CC[C@H](N)C(=O)O)C(=O)O)C(=O)N[C@@H](CCCNC(=N)N)C(=O)N[C@@H](CCCCNC(=O)CC[C@H](NC(=O)CC[C@H](N)C(=O)O)C(=O)O)C(=O)N[C@@H](CCCNC(=N)N)C(=O)N[C@@H](CCC(N)=O)C(=O)N[C@@H](CCC(N)=O)C(=O)O)[C@@H](C)CC)[C@@H](C)CC)[C@@H](C)O)[C@@H](C)O)C(C)C)C(C)C [melittin analog]
LLC 1
  lytic activity: strong lytic activity
B 16
  lytic activity: strong lytic activity
SK-OV-3
  lytic activity: strong lytic activity
DU0145
  lytic activity: strong lytic activity
mice
  tolerated concentration relative to concentration needed to kill a mouse using the unmasked melittin peptide: 50-200 fold
mice; subcutaneously or intravenously, weeks following treatment
  condition of mice after treatment: remained healthy, apparently unaffected
[1]
  toxicity to cells: relatively unaffected
[2]
  toxicity to cells: highly toxic
PNCap
  lytic activity: strong lytic activity
HeLa; 1, 10, 50 or 100 μM peptide
  lytic activity: strong lytic activity
HeLa; 25 and 50 mM concentrations
  toxicity to cells: highly toxic

## NH2-Gly-Phe-Ile-Ala-Thr-Leu-Cys-Thr-Lys-Val-Leu-Asp-Phe-Gly-Ile-Asp-Lys-Leu-Ile-Gln-Leu-Ile-Glu-Asp-Lys-CONH2 (H-GFIATLCTKVLDFGIDKLIQLIEDK-NH2; listed as Entamoeba histolytica) [Amoebapore Helix 3]
Nucleated cells
  concentration with cytolytic activity: 10 to 100 µM

## amoebapore helix 3-γ-Glu-γ-Glu: 25-residue C-terminal amidated amoebapore helix 3 peptide with two γ-linked glutamates on the ε amino group of the C-terminal lysine (GFIATLCTKVLDFGIDKLIQLIEDK([γGlu-γGlu])-NH2; N-terminus assumed; SMILES CC[C@H](C)[C@H](NC(=O)CNC(=O)[C@H](Cc1ccccc1)NC(=O)[C@H](CC(=O)O)NC(=O)[C@H](CC(C)C)NC(=O)[C@@H](NC(=O)[C@H](CCCCN)NC(=O)[C@@H](NC(=O)[C@H](CS)NC(=O)[C@H](CC(C)C)NC(=O)[C@@H](NC(=O)[C@H](C)NC(=O)[C@@H](NC(=O)[C@H](Cc1ccccc1)NC(=O)CN)[C@@H](C)CC)[C@@H](C)O)[C@@H](C)O)C(C)C)C(=O)N[C@@H](CC(=O)O)C(=O)N[C@@H](CCCCN)C(=O)N[C@@H](CC(C)C)C(=O)N[C@H](C(=O)N[C@@H](CCC(N)=O)C(=O)N[C@@H](CC(C)C)C(=O)N[C@H](C(=O)N[C@@H](CCC(=O)O)C(=O)N[C@@H](CC(=O)O)C(=O)N[C@@H](CCCCNC(=O)CC[C@H](NC(=O)CC[C@H](N)C(=O)O)C(=O)O)C(N)=O)[C@@H](C)CC)[C@@H](C)CC)
Mouse L-cells [3]
  cell lysis: remain unaffected
[4]
  cell lysis by ATP depletion: completely lysed
Mouse L-cells [5]
  cell lysis by ATP depletion: remain unaffected
[6]
  cell lysis: completely lysed
